In US8058243B2, “Method for treating a brain cancer with ifenprodil” (HSC Research and Development Limited Partnership, priority 2006, dated 2011):
Like-named read-outs stand apart in the source and are kept apart here.

Key:
[1] = system: mouse NSC neurosphere cultures; assay: Dose-response curves and EC50, neurosphere MTT proliferation, 7 days; format: cell-based
[2] = system: murine neural precursor cells (neurosphere cultures); assay: HTS of LOPAC library against secondary neurosphere cultures, MTT proliferation assay at 3 μM, day 7 (z score, P value); format: cell-based, mouse
[3] = system: Ptch1+/− Trp53−/− medulloblastoma neurosphere cultures; assay: Tumor sphere MTT proliferation EC50; format: cell-based, mouse; conditions: read-out: Ptch1+/− Trp53−/− neurosphere EC50
Excerpt: (§1) Astrocyte Screen and Neurosphere Selectivity Assessment. […] Murine Medulloblastoma Generation and Culture. […] Flow Cytometry. […] Results

[4] = system: ptc1+/− medulloblastoma precursor cells (neurosphere cultures); assay: Medulloblastoma tumor sphere MTT proliferation EC50; format: cell-based, mouse
Excerpt: as §1

NPC colony formation = assay: Inhibition of colony formation by bromocriptine with and without (±)-sulpiride; format: cell-based, mouse
[5] = cited from earlier work
[6] = system: hGBM1 precursors (WHO grade IV GBM); assay: Human glioblastoma precursor EC50 (hGBM1); format: cell-based
[7] = system: hGBM2 precursors (WHO grade IV GBM, giant cell variant); assay: Human glioblastoma precursor EC50 (hGBM2); format: cell-based
[8] = system: neural precursors derived from human fetal CNS tissue (hFetal); assay: Human fetal neural precursor EC50; format: cell-based
[9] = system: ptc1+/− tumor cell growth; conditions: cited from earlier work
[10] = system: nestin expression in NPCs; assay: Flow cytometric analysis of nestin in NPCs; format: cell-based, mouse
[11] = system: NSC fraction of neurosphere cultures; conditions: 7 day pretreatment at estimated EC75 (apomorphine EC50); 2,000 or 1,000 cells
[12] = system: medulloblastoma formation; conditions: mice; cited from earlier work
[13] = 168 h, normal mouse neurosphere cultures, MTT, 7 days, read-out: Neurosphere EC50
[14] = Mus musculus, read-out: EC 50% Neurosphere, Table 5
[15] = Mus musculus, Table 8, read-out: Neurosphere EC50
[16] = cultures derived from mouse cerebellar tumor samples
[17] = Mus musculus, ptc1+/− medulloblastoma derived neurospheres, read-out: Medulloblastoma Neurosphere EC50
[18] = cultures derived from mouse cerebellar tumor samples, read-out: Ptch1+/− neurosphere EC50
[19] = LOPAC primary screen, neurosphere MTT proliferation, 3 μM, day 7
[20] = yes/no: significantly inhibited neurosphere proliferation (P<0.01) in the primary screen
[21] = Table 8, read-out: Neurosphere EC50
[22] = LOPAC library screen, 3 μM, MTT, secondary neurosphere cultures, day 7
[23] = normal mouse neurosphere cultures, MTT, 7 days, read-out: Neurosphere EC50
[24] = read-out: EC 50% Neurosphere, Table 5
[25] = ptc1+/− medulloblastoma derived neurospheres, read-out: Medulloblastoma Neurosphere EC50
[26] = Mus musculus, read-out: Ptch1+/− neurosphere EC50

| SMILES | EC50 [1, 13] | EC50 [1, 14] | EC50 [1, 15] | EC50 [4, 17] | EC50 [4, 18] | Z score [2, 19] | Activity [2, 20] | EC50 ([6]; Homo sapiens) | Z Score [2, 22] | EC50 ([7]; Homo sapiens) | EC50 [8] | further results |
| --- | --- | --- | --- | --- | --- | --- | --- | --- | --- | --- | --- | --- |
| CC(C)(C)[C@]1(O)CCN2C[C@H]3c4ccccc4CCc4cccc(c43)[C@@H]2C1 (racemic) [(±) Butaclamol (4), (±)-Butaclamol] | 0.785 µM | 0.785 µM | 0.785 µM | 0.751 µM | 0.751 µM |  |  |  |  |  |  | Activity [2]: yes; Z score ([2]; 168 h, 3 µM): −5.934; EC50 [3, 16]: 2.53 µM |
| CCN1CCCC1CNC(=O)c1cc(S(N)(=O)=O)ccc1OC (racemic) [(±)-sulpride, reference compound] |  |  |  |  |  | −0.284 | no |  |  |  |  | rescue of the inhibitory effects of bromocriptine (NPC colony formation; colony formation and MTT values): able to competitively rescue the inhibitory effects |
| CC(C)C[C@H]1C(=O)N2CCC[C@H]2[C@]2(O)O[C@](NC(=O)[C@@H]3C=C4c5cccc6[nH]c(Br)c(c56)C[C@H]4N(C)C3)(C(C)C)C(=O)N12 [(+)-Bromocripline (18), (+)-Bromocripline] |  |  |  |  |  |  |  |  |  |  |  | EC50 [1, 21]: 1.19 µM; EC50 (NPC colony formation; with (±)-sulpiride supplementation, read-out: EC50 of inhibition of colony formation, with sulpiride): 2.5 µM; EC50 (NPC colony formation; without sulpiride, read-out: EC50 of inhibition of colony formation, without sulpiride): 1.2 µM |
| CN1CCc2cccc3c2[C@H]1Cc1ccc(O)c(O)c1-3 [(R)-(−)-Apomorphine (6), (R)-(−)-Apomorphine] | 0.35 µM | 0.35 µM | 0.35 µM | 0.168 µM | 0.168 µM | −11.274 |  | 14.6 µM | −11.27 | 0.31 µM |  | Effective in vivo concentrations [5]: 6 to 7 µM; Activity [2]: yes |
| CCN(CC)CCOCCOC(=O)C1(c2ccccc2)CCCC1 [Carbetapentane (10), Carbetapentane] | 0.756 µM | 0.756 µM | 0.756 µM | 2.08 µM | 2.08 µM | −8.021 | yes | 5.44 µM | −8.021 | 1.73 µM |  |  |
| N.N.O=C([O-])C1(C(=O)[O-])CCC1.[Pt+2] [Carboplatin (3), Carboplatin] |  |  |  |  | 0.196 µM | −6.204 |  |  | −6.204 |  | 0.43 µM | EC50 [1, 21]: 0.489 µM; EC50 [1, 23]: 0.489 µM; EC50 [1, 24]: 0.489 µM; EC50 [6]: 2.04 µM; Activity ([2]; yes = significantly inhibited neurosphere proliferation (P<0.01) in the primary screen): yes; EC50 [4, 25]: 0.196 µM; EC50 [7]: 3.3 µM |
| C[C@@H]1C[C@@H]([C@H](O)CC2CC(=O)NC(=O)C2)C(=O)[C@@H](C)C1 [Cycloheximide (1), Cycloheximide] |  |  |  |  |  |  |  |  |  |  |  | EC50 ([3]; Mus musculus): 0.054 µM; EC50 ([4]; Mus musculus, read-out: Medulloblastoma Neurosphere EC50): 0.042 µM; EC50 [4, 26]: 0.042 µM |
| CC1=C2C[C@H]3[C@@H](CC=C4C[C@@H](O)CC[C@@]43C)[C@@H]2CC[C@]12O[C@@H]1C[C@H](C)CN[C@H]1[C@H]2C [Cyclopamine (16), Cyclopamine] |  |  |  |  |  |  |  |  |  |  |  | reported concentration for inhibition of ptc1+/− tumor cell growth in vitro [9]: 5 µM; EC50 [4, 26]: 1 µM |
| COc1cc(CNC(=O)CCCCCCC(C)C)ccc1O [Dihydrocapsaicin (15), Dihydrocapsaicin] |  |  |  | 0.02 µM | 0.02 µM | −10.003 | yes | 88.6 µM | −10 | 21.5 µM |  |  |
| COc1cc([C@@H]2c3cc4c(cc3[C@@H](O[C@@H]3O[C@@H]5CO[C@@H](C)O[C@H]5[C@H](O)[C@H]3O)[C@H]3COC(=O)[C@H]23)OCO4)cc(OC)c1O [Etoposide (2), Etoposide] | 0.34 µM | 0.34 µM | 0.34 µM | 0.208 µM | 0.208 µM | −11.102 | yes | 0.62 µM | −11.1 | 0.27 µM | 0.16 µM |  |
| CC(C(O)c1ccc(O)cc1)N1CCC(Cc2ccccc2)CC1 (centres unmarked) [Ifenprodil (9), Ifenprodil] | 0.616 µM | 0.616 µM | 0.616 µM | 0.451 µM | 0.451 µM | −8.904 | yes | 1.99 µM | −8.904 | 0.206 µM | 0.42 µM | EC50 [3, 16]: 0.807 µM; nestin negative cells ([10]; 2 d treatment, 5 μM, vehicle 20%): 63%; expression of the immature NPC marker nestin ([10]; treatment for 2 d): substantially decreased |
| Nc1ccc(CCN2CCN(c3cccc(C(F)(F)F)c3)CC2)cc1 [PAPP (14), p-aminophenethyl-m-trifluoromethylphenyl piperazine] |  |  |  |  | 0.169 µM |  |  |  |  |  | 0.22 µM | EC50 [1, 21]: 0.031 µM; EC50 [1, 23]: 0.031 µM; EC50 [1, 24]: 0.031 µM; EC50 [6]: 1.87 µM; Activity [2]: yes; Z Score [2]: −10.73; Z score [2]: −10.728; EC50 [3, 16]: 0.097 µM; EC50 [4, 25]: 0.169 µM; expression of the immature NPC marker nestin [10]: substantially decreased; EC50 [7]: 0.31 µM; secondary neurosphere formation upon re-culture in the absence of drug (replating efficiency) [11]: reduction in replating efficiency |
| O=C(Nc1ccccc1)C12CC1/C(=N\O)c1ccccc1O2 (centres unmarked) [PHCCC] |  |  |  |  |  |  |  |  |  |  |  | medulloblastoma formation in vivo [12]: attenuate medulloblastoma formation |
| O[Si](CCCN1CCCCC1)(c1ccc(F)cc1)C1CCCCC1 (centres unmarked) [p-F-HHSiD (8), p-fluoro-hexahydrosila-difenidol] |  |  |  |  | 1.12 µM |  |  |  |  |  | 10.6 µM | EC50 [1, 21]: 0.441 µM; EC50 [1, 23]: 0.441 µM; EC50 [1, 24]: 0.441 µM; EC50 [6]: 12.6 µM; EC50 [3, 16]: 1.37 µM; EC50 [4, 25]: 1.12 µM; EC50 [7]: 1.23 µM |
